Data: patent publication US20200247897A1, “THERAPEUTIC ANTIBODIES BASED ON MUTATED IGG HEXAMERS” (GENMAB B.V., priority 2017, published 2020)

Test system: panel of 235 cell lines representing 14 tumor lineages
Experiment: ATPlite growth inhibition screening of a human cancer cell line panel (Horizon Discovery)
Type: cell-based
Method: A 72 hour ATPlite assay (except for DLD-1 and HCT116 cell lines, for which a 120 hour assay was performed) with growth inhibition analysis was performed in two parts at Horizon Discovery Ltd, UK. Samples were tested as four replicates in 384-well assay plates. Serial dilution series of antibody, starting from 0.072 μM final concentration was used for all tested cell lines. For TRAIL (Invitrogen; Cat # PHC1634) serial dilution series starting from 0.01 μM final concentration for the cell lines tested in the first part and 0.17 μM final concentration for the cell lines tested in the second part of the screening was used.

[1] = MCAS, ovary cancer, screening #1
[2] = MCF7, breast cancer, screening #2
[3] = MDA-MB-453, breast cancer (TNBC), screening #2
[4] = MDA-MB-468, breast cancer (TNBC), screening #2
[5] = OVCAR-5, ovary cancer, screening #1
[6] = OVK18, ovary cancer, screening #1
[7] = PK-1, pancreatic cancer, screening #1
[8] = PSN1, pancreatic cancer, screening #1
[9] = Panc 02.13, pancreatic cancer, screening #1
[10] = RERF-LC-KJ, NSCLC, screening #1
[11] = RT4, bladder cancer, screening #2
[12] = RT-112, bladder cancer, screening #2
[13] = SCaBER, bladder cancer, screening #1
[14] = SF295, neural tissue cancer, screening #2
[15] = SK-BR-3, breast cancer, screening #2
[16] = SNU119, ovary cancer, screening #1
[17] = SNU-308, liver cancer, screening #1
[18] = SW780, bladder cancer, screening #1
[19] = T47D, breast cancer, screening #2
[20] = T-24, bladder cancer, screening #2
[21] = TCCSUP, bladder cancer, screening #2
[22] = UM-UC-3, bladder cancer, screening #1

IC50 (LC1F, NSCLC, screening #1): 0.451 nM
IC50 (LC-1sq, NSCLC, screening #1): 0.781 nM
IC50 (LCLC-103H, NSCLC, screening #1): 8.02 nM
IC50 (LOU-NH91, NSCLC, screening #1): 5.38 nM
IC50 (LUDLU-1, NSCLC, screening #1): 0.475 nM
IC50 [1]: 56.8 nM
IC50 [2]: 0.055 nM
IC50 (MDA-MB-231, breast cancer (TNBC), screening #1): 0.11 nM
IC50 (MDA-MB-436, breast cancer (TNBC), screening #2): 0.053 nM
IC50 [3]: 34.6 nM
IC50 [4]: 0.647 nM
IC50 (MDST8, colorectal cancer, screening #1): 1.19 nM
IC50 (MES-SA, endometrial cancer, screening #1): 0.107 nM
IC50 (NCI-H460, NSCLC, screening #1): 0.853 nM
IC50 (NCI-H820, NSCLC, screening #1): 0.023 nM
IC50 (NMC-G1, neural tissue cancer, screening #2): 17.6 nM
IC50 [5]: 1.12 nM
IC50 [6]: 0.23 nM
IC50 [7]: 0.548 nM
IC50 [8]: 0.205 nM
IC50 [9]: 1.91 nM
IC50 [10]: 0.633 nM
IC50 (RL95-2, endometrial cancer, screening #1): 0.155 nM
IC50 [11]: 0.244 nM
IC50 [12]: 0.325 nM
IC50 [13]: 0.082 nM
IC50 (SF126, neural tissue cancer, screening #2): 0.013 nM
IC50 [14]: 0.023 nM
IC50 [15]: 0.518 nM
IC50 (SNB-75, neural tissue cancer, screening #2): 105 nM
IC50 (SNG-II, endometrial cancer, screening #1): 1.03 nM
IC50 (SNU5, gastric cancer, screening #1): 0.109 nM
IC50 [16]: 0.082 nM
IC50 (SNU1033, colorectal cancer, screening #1): 10.1 nM
IC50 (SNU-175, colorectal cancer, screening #1): 0.122 nM
IC50 [17]: 0.937 nM
IC50 (SNU-407, colorectal cancer, screening #1): 0.098 nM
IC50 (SNU-478, liver cancer, screening #1): 0.516 nM
IC50 (SNU-601, gastric cancer, screening #1): 0.284 nM
IC50 (SNU-620, gastric cancer, screening #1): 0.045 nM
IC50 (SNU-668, gastric cancer, screening #1): 0.041 nM
IC50 (SNU-719, gastric cancer, screening #1): 1.13 nM
IC50 (SNU-869, liver cancer, screening #1): 2.95 nM
IC50 (SNU-1197, colorectal cancer, screening #1): 0.053 nM
IC50 (SNU-C2B, colorectal cancer, screening #1): 0.713 nM
IC50 (SUM159PT, breast cancer (TNBC), screening #2): 0.033 nM
IC50 (SW480, colorectal cancer, screening #1): 2.04 nM
IC50 [18]: 0.016 nM
IC50 (SW837, colorectal cancer, screening #1): 0.94 nM
IC50 (T3M-10, NSCLC, screening #1): 0.495 nM
IC50 [19]: 347 nM
IC50 [20]: 0.166 nM
IC50 [21]: 0.048 nM
IC50 (TE-4, head and neck cancer, screening #1): 0.107 nM
IC50 (TE-6, head and neck cancer, screening #1): 3.92 nM
IC50 (TE-9, head and neck cancer, screening #1): 0.3 nM
IC50 (TEN, endometrial cancer, screening #1): 1.21 nM
IC50 (U-87 MG, neural tissue cancer, screening #2): 0.053 nM
IC50 [22]: 0.005 nM
IC50 (YD-15, head and neck cancer, screening #1): 0.114 nM
IC50 (YH-13, neural tissue cancer, screening #2): 0.317 nM
Substance: TRAIL: natural DR5 ligand, recombinant human TRAIL/APO-2L
Max Inhibition (KURAMOCHI, ovary cancer, screening #1): 13.4%
Max Inhibition (LC1F, NSCLC, screening #1): 74.3%
Max Inhibition (LC-1sq, NSCLC, screening #1): 70.1%
Max Inhibition (LCLC-97TM1, NSCLC, screening #1): 4.6%
Max Inhibition (LCLC-103H, NSCLC, screening #1): 54.2%
Max Inhibition (LK-2, NSCLC, screening #1): 5.6%
Max Inhibition (LOU-NH91, NSCLC, screening #1): 63.0%
Max Inhibition (LU-65, NSCLC, screening #1): 32.4%
Max Inhibition (LU-99, NSCLC, screening #1): 6.3%
Max Inhibition (LUDLU-1, NSCLC, screening #1): 91.1%
Max Inhibition (LXF-289, NSCLC, screening #1): 12.7%
Max Inhibition [1]: 48.4%
Max Inhibition [2]: 21.7%
Max Inhibition [3]: 20.7%
Max Inhibition [4]: 89.4%
Max Inhibition (MEL-HO, melanoma, screening #1): 16.7%
Max Inhibition (MEL-JUSO, melanoma, screening #1): 7.6%
Max Inhibition (NCI-H460, NSCLC, screening #1): 86.1%
Max Inhibition (NCI-H820, NSCLC, screening #1): 100.0%
Max Inhibition (OV7, ovary cancer, screening #1): 20.4%
Max Inhibition [5]: 70.6%
Max Inhibition (OVISE, ovary cancer, screening #1): 4.0%
Max Inhibition [6]: 80.0%
Max Inhibition (OVTOKO, ovary cancer, screening #1): 28.0%
Max Inhibition [7]: 88.3%
Max Inhibition [8]: 86.9%
Max Inhibition [9]: 60.5%
Max Inhibition [10]: 68.9%
Max Inhibition [11]: 91.5%
Max Inhibition [12]: 50.9%
Max Inhibition (RVH-421, melanoma, screening #1): 22.5%
Max Inhibition [13]: 25.8%
Max Inhibition [14]: 87.5%
Max Inhibition [15]: 38.1%
Max Inhibition (SK-MEL-30, melanoma, screening #1): 6.1%
Max Inhibition [16]: 83.7%
Max Inhibition [17]: 72.4%
Max Inhibition (SNU-878, liver cancer, screening #1): 36.2%
Max Inhibition [18]: 97.9%
Max Inhibition (SW1573, NSCLC, screening #1): 13.9%
Max Inhibition (T3M-10, NSCLC, screening #1): 83.7%
Max Inhibition [19]: 8.4%
Max Inhibition [20]: 20.5%
Max Inhibition [21]: 51.5%
Max Inhibition [22]: 99.4%
Max Inhibition (VMRC-LCD, NSCLC, screening #1): 19.2%
Max Inhibition (WM-266-4, melanoma, screening #1): 42.5%
responder cell lines (maximum response threshold 70% inhibition) (monotherapy, 72 hour ATPlite assay): found for all tested tumor indications, except small cell lung cancer (SCLC)
